Measurements from patent US20200399308A1, “COMPOUNDS AND METHODS FOR ELICITING ANTIMICROBIAL ACTIVITY” (Technion Research & Development Foundation Limited, priority 2018, published 2020).
Converted amounts (≈) assume the structure as drawn. Like-named read-outs stand apart in the source and are kept apart here. Non-standard residues stand in square brackets, D forms with d. Residues, ends and D or L forms follow the SMILES beside them. *: point of attachment. 12Ado = NCCCCCCCCCCCC(=O)O; Decanoyl = CCCCCCCCCC(=O)*; Octanoyl = CCCCCCCC(=O)*

Assays:
[1] = Critical aggregation concentration by light scattering in PBS; format: physicochemical; conditions: light scattering in phosphate-buffered saline
Procedure: (§1) Organization of the compounds in aqueous solution was assessed by light-scattering measurements in phosphate buffered saline (PBS; 10 mM Na2HPO4, 150 mM NaCl, pH=7.0). Hemolytic assays were performed as described elsewhere, using fresh mouse red blood cells.
(§2) The mean value (±SD) is shown for Compound C; Minimum inhibitory concentration (MIC) of compounds required to inhibit bacterial proliferation after overnight incubation.

[2] = system: Klebsiella pneumoniae 1287; assay: Minimal inhibitory concentration; format: cell-based
Procedure: (§3) Minimal inhibitory concentrations (MICs) were determined as previously described. […] MICs were determined by microdilution susceptibility testing in 96-well plates (by Nunc) using inocula of 10^5 bacteria per ml. Cell populations were evaluated by optical density measurements at 620 nm and were calibrated against a set of standards. Hundred (100) μl of a bacterial suspension were added to 100 μl of culture medium (control) or to 100 μl of culture medium containing various tested compound concentrations in 2-fold serial dilutions. Inhibition of proliferation was determined by optical density measurements at 620 nm after an incubation period of 24 hours at 37° C. Data were obtained from ≥2 independent experiments performed in duplicate.
as §2

[3] = system: Salmonella enterica serovar Choleraesuis 7308; assay: Minimal inhibitory concentration; format: cell-based
Procedure: as §3, §2

[4] = system: Pseudomonas aeruginosa 11816; assay: Minimal inhibitory concentration; format: cell-based
Procedure: as §3, §2

[5] = system: Pseudomonas aeruginosa 11662; assay: Minimal inhibitory concentration; format: cell-based
Procedure: as §3, §2

[6] = system: Escherichia coli 25922; assay: Minimal inhibitory concentration; format: cell-based
Procedure: as §3, §2

[7] = system: Escherichia coli ML35p; assay: Minimal inhibitory concentration; format: cell-based; conditions: Ec ML35p, overnight incubation
Procedure: as §3, §2

[8] = system: Salmonella enterica serovar Typhimurium 14028; assay: Minimal inhibitory concentration; format: cell-based
Procedure: as §3, §2

[9] = system: Klebsiella pneumoniae C2 (carbapenemase 2-producing strain); assay: Minimal inhibitory concentration; format: cell-based
Procedure: as §3, §2

[10] = Hemolytic assay; format: cell-based; conditions: fresh mouse red blood cells (1%); hemolysis of 50% of mouse red blood cells (1%) after 3 hours in PBS; read-out: LC50, fifty percent lethal concentration (hemolysis)
Procedure: as §1, §2

[11] = Charge at physiological pH (Q); format: physicochemical
[12] = Hydrophobicity (H) by HPLC elution from C18 column; format: physicochemical; conditions: percentage of acetonitrile required for elution
[13] = system: Escherichia coli mutant ML-35p; assay: Outer and cytoplasmic membrane permeabilization (nitrocefin / ONPG); format: cell-based; conditions: E. coli ML-35p, buffer, 16 minutes after addition
Procedure: Membrane permeabilization was assessed using E. coli ML-35p as described elsewhere, to monitor the ability of the compounds to perturb the outer and/or cytoplasmic membranes. Reported data were obtained from ≥2 independent experiments performed in duplicate.
Additional support for this view was obtained by comparing the compounds' susceptibility to damage gram-negative bacteria membranes, using the E. coli mutant ML-35p. Widely described in the literature, the mutant was considered herein as representative of all gram-negative bacteria, rather than a specific species. This mutant is constitutive for cytoplasmic β-galactosidase, lacks lactose permease, and expresses a plasmid-encoded periplasmic β-lactamase. Two chromogenic reporter molecules (nitrocefin and 2-nitrophenyl β-d-galactopyranoside, respectively, absorbing at 486 and 420 nm) were used to monitor permeabilization of the outer membrane and/or cytoplasmic membrane in a single assay.

[14] = system: OM; assay: Outer membrane damage by less hydrophobic analogs; format: cell-based
[15] = Subcutaneous 25 mg/kg, published data, cited from earlier work
[16] = system: E. coli 25922; assay: Simultaneous versus delayed drug exposure assay in LB; format: cell-based, Escherichia coli; conditions: Compound B 10 μM with 0.06 μg/ml rifampin or 4 μg/ml erythromycin, LB
Procedure: (§4) Time-kill kinetics data were determined using 100 μl of bacterial suspension (10^6 CFU/ml), which was added to […] LB containing none of or specified concentrations of the tested compound, antibiotic, and combinations thereof. After the specified exposure time points (37° C. under shaking), aliquots were formed, subjected to serial 10-fold dilutions in saline (0.85% NaCl), and plated for bacterial enumeration after additional 24 hours incubation at 37° C. Time-kill experiments in human and mouse plasma were performed as described elsewhere. The effects of drug delay were assessed in LB, except that bacteria were pre-incubated with the tested compound or antibiotic for the specified time points, centrifuged, and resuspended in fresh LB-containing antibiotic or the tested compound, respectively, and incubated for 3 hours before CFU enumeration.

[17] = system: E. coli 25922; assay: Time-kill kinetics in broth versus plasma; format: cell-based, Escherichia coli
Procedure: as §4

[18] = system: E. coli strain 25922; assay: Checkerboard antibiotic MIC with Compound B; format: cell-based, Escherichia coli
Procedure: as §3
(§5) Shown in parentheses are calculated sensitization factor, defined as antibiotic's MICs ratio (in absence vs. presence of Compound B) at specified Compound B concentration.

[19] = system: E. coli strain 35218; assay: Checkerboard antibiotic MIC with Compound B; format: cell-based, Escherichia coli
Procedure: as §3, §5

[20] = system: E. coli strain 14384; assay: Checkerboard antibiotic MIC with Compound B; format: cell-based, Escherichia coli
Procedure: as §3, §5

[21] = system: E. coli strain 16327; assay: Checkerboard antibiotic MIC with Compound B; format: cell-based, Escherichia coli
Procedure: as §3, §5

[22] = system: E. coli strain 14182; assay: Checkerboard antibiotic MIC with Compound B; format: cell-based, Escherichia coli
Procedure: as §3, §5

[23] = system: Escherichia coli 25922; assay: Mouse peritonitis-sepsis model; format: in vivo; conditions: neutropenic ICR mice; erythromycin 100 mg/kg s.c. + Compound B […] s.c.
Procedure: A mouse peritonitis-sepsis model was created as described elsewhere. Infection was obtained after intraperitoneal injection of bacteria from a logarithmic-phase culture. Infected mice were treated subcutaneously. The doses were selected to allow comparison with the reference compound and to remain below the maximum tolerated dose after double-dose administration. […] Briefly, mouse peritonitis sepsis model for in vivo studies were performed using male ICR mice ([…]) obtained from Envigo Laboratories (Rehovot, Israel). […] Infection was obtained by intraperitoneal injection of a logarithmic phase culture of E. coli 25922 (1.3±0.2×10^6 CFU permouse in 0.3 ml PBS). […] Infection control mice were injected with the PBS vehicle. Mouse survival was monitored for up to 7 days after treatment. Statistical analyses were performed by paired Student's t test, at α=0.05.

[24] = system: Escherichia coli 25922; assay: Mouse thigh infection model; format: in vivo; conditions: normal mice inoculated intramuscularly, treated s.c. 1 hour thereafter, CFU 24 hours post-treatment
Procedure: Mouse thigh infection model was afforded from normal ICR mice, which were inoculated intramuscularly and treated subcutaneously 1 hour thereafter with a tested compound or polymyxin B (PMB; Sigma-Aldrich) as described elsewhere. P values were calculated using a 1-tailed t test (assuming unequal variance). A P value of <0.05 is considered statistically significant.

[25] = system: E. coli 25922; assay: Ethidium bromide permeability assay; format: cell-based, Escherichia coli; conditions: t=20 minutes
Procedure: Ethidium bromide permeability assays were performed as follows: Overnight cultures were adjusted to 1.0 OD (600 nm) and centrifuged for 5 minutes at 15,000 g. Pellets were washed twice with PBS containing 0.5% glucose, resuspended, and incubated for 10 minutes at 37° C. with shaking. A […] suspension was mixed in a black 96-well plate with […] of the tested compound and ethidiumbromide (1 μg/ml), and the fluorescence was recorded (excitation 535 nm, emission 590 nm) for up to 30 minutes at 37° C. with shaking. Data were obtained from at least 2 independent experiments.
(FU denotes fluorescence units; triangles denote Compound B, circles denote PMB, squares denote untreated control; error bars=SD).

[26] = 20 mg/kg body weight; reported; cited from earlier work

CCCCCCCCCC(=O)NC(CCCCN)C(=O)NC(CCCCN)C(=O)NCCCCCCCCCCCC(=O)NC(CCCCN)C(N)=O (stereo not drawn) [Compound A] (Decanoyl-KK[12Ado]K-NH2; configuration not given here)
CAC, critical aggregation concentration [1]: >100 µM | MIC [2]; 1287: > 50 µM | MIC ([3]; CHOLERAESUIS / SC7308): > 50 µM | MIC [4]; 11816: > 50 µM | MIC [5]; 11662: > 50 µM | MIC [6]; 25922: > 50 µM | MIC [7]: > 50 µM | MIC [8]: > 50 µM | MIC [9]: > 50 µM | CC50 at 3 h [10]: > 100 µM | Q, charge at physiological pH [11]: 3 | H, hydrophobicity [12]: 44% | cytoplasmic membrane permeabilization [13]: similarly unable to permeabilize the cytoplasmic membrane at least up to approximately 10 μM | outer membrane permeabilization [13]: similarly potent in inducing outer membrane permeabilization

CCCCCCCC(=O)N[C@@H](CCCCN)C(=O)N[C@@H](CCCCN)C(=O)NCCCCCCCCCCCC(=O)N[C@@H](CCCCN)C(N)=O [Compound C8KKC12K] (Octanoyl-KK[12Ado]K-NH2)
damage to the OM [14]: able to damage the OM

CC[C@H]1OC(=O)[C@H](C)[C@@H](O[C@H]2C[C@@](C)(OC)[C@@H](O)[C@H](C)O2)[C@H](C)[C@@H](O[C@@H]2O[C@H](C)C[C@H](N(C)C)[C@H]2O)[C@](C)(O)C[C@@H](C)C(=O)[C@H](C)[C@@H](O)[C@]1(C)O [Erythromycin, erythromycin]
Plasma concentration ([15]; 0.5 h): 3700 ng/mL | Plasma concentration ([15]; 1 h): 2300 ng/mL | Plasma concentration ([15]; 2 h): 400 ng/mL | effect of delayed exposure on sensitization by Compound B [16]: delay by up to 60 (but not 120) minutes revealed maintenance of the sensitization activity | effect on CFU count ([17]; LB broth, 24-hours end point, erythromycin 3 μg/ml combined with Compound B 0.6 μM): did not alter the CFU count | time to accomplish the CFU reduction (more than 3 log units) ([17]; human plasma, antibiotic with Compound B 0.6 μM): ≤ 3 hours | combined action with Compound B ([17]; mouse plasma, 24 hours end point, Compound B 10 μM with rifampin 1 μg/ml or erythromycin 3 μg/ml): expressed synergism of action | Antibiotic MIC in the presence of Compound B ([18]; Compound B 2.5 μM): 2 µg/mL | Antibiotic MIC in the presence of Compound B ([18]; Compound B 5 μM): 0.5 to 1 µg/mL | Antibiotic MIC in the presence of Compound B ([18]; Compound B 10 μM): 0.25 µg/mL | Antibiotic MIC in the presence of Compound B ([18]; Compound B […]): 8 µg/mL | Antibiotic MIC in the presence of Compound B ([19]; Compound B 2.5 μM): 4 µg/mL | Antibiotic MIC in the presence of Compound B ([19]; Compound B 5 μM): 1 µg/mL | Antibiotic MIC in the presence of Compound B ([19]; Compound B 10 μM): 0.5 µg/mL | Antibiotic MIC in the presence of Compound B ([19]; Compound B […]): 64 µg/mL | Antibiotic MIC in the presence of Compound B ([20]; Compound B 0 μM): >512 µg/mL | Antibiotic MIC in the presence of Compound B ([20]; Compound B 2.5 μM): 2 µg/mL | Antibiotic MIC in the presence of Compound B ([20]; Compound B 5 μM): 1 µg/mL | Antibiotic MIC in the presence of Compound B ([20]; Compound B 10 μM): 0.5 µg/mL | Antibiotic MIC in the presence of Compound B ([20]; Compound B […]): 64 µg/mL | Antibiotic MIC in the presence of Compound B ([21]; Compound B 0 μM): 512 µg/mL | Antibiotic MIC in the presence of Compound B ([21]; Compound B 2.5 μM): 4 µg/mL | Antibiotic MIC in the presence of Compound B ([21]; Compound B 5 μM): 1 µg/mL | Antibiotic MIC in the presence of Compound B ([21]; Compound B 10 μM): 0.5 µg/mL | Antibiotic MIC in the presence of Compound B ([21]; Compound B […]): 64 µg/mL | Antibiotic MIC in the presence of Compound B ([22]; Compound B 2.5 μM): 16 µg/mL | Antibiotic MIC in the presence of Compound B ([22]; Compound B 5 μM): 4 µg/mL | Antibiotic MIC in the presence of Compound B ([22]; Compound B 10 μM): 1 µg/mL | efficacy of combination vs individual administrations [23]: clearly more effective in combination

polymyxin B [PMB]
reduction of the number of inoculated E. coli [24]: 64% | CM permeability to ethidium bromide [25]: increased significantly more than Compound B | mortality [26]: zero

CCCCCCCCCC(=O)NC(CCCNC(=N)N)C(=O)NC(CCCNC(=N)N)C(=O)NCCCCCCCCCCCC(=O)NC(CCCNC(=N)N)C(N)=O (stereo not drawn) [Compound C] (Decanoyl-RR[12Ado]R-NH2; configuration not given here)
CAC, critical aggregation concentration [1]: >100 µM | MIC ([2]; Kp 1287, overnight incubation, read-out: MIC): 50 µM (≈ 41.9 µg/mL) | MIC ([3]; CHOLERAESUIS / SC7308, SC 7308, overnight incubation, read-out: MIC): > 50 µM | MIC ([4]; Pa 11816, overnight incubation, read-out: MIC): 50 µM (≈ 41.9 µg/mL) | MIC ([5]; Pa 11662, overnight incubation, read-out: MIC): 50 µM (≈ 41.9 µg/mL) | MIC ([6]; Ec 25922, overnight incubation, read-out: MIC): 25 µM (≈ 20.9 µg/mL) | MIC [7]: 12.5 µM (≈ 10.5 µg/mL) | MIC ([8]; ST 14028, overnight incubation, read-out: MIC): > 50 µM | MIC ([9]; Kp C2, overnight incubation, read-out: MIC): > 50 µM | CC50 at 3 h [10]: 80 ± 1 µM | Q, charge at physiological pH [11]: 3 | H, hydrophobicity [12]: 46% | cytoplasmic membrane permeabilization [13]: somewhat higher tendency for cytoplasmic membrane damaging
